Measurements published in PMC8699473, “An Easily Expandable Multi-Drug LC-MS Assay for the Simultaneous Quantification of 57 Oral Antitumor Drugs in Human Plasma” (Cancers, 2021).

Experiment: Long-term stability in spiked pooled human plasma

| Structure (SMILES) | Long-term stability, 1 month, -20°C Accuracy [%] (validation standard 2xLLOV) | Long-term stability, 1 month, -80°C Accuracy [%] (validation standard 2xLLOV) | Long-term stability, 2 month, -20°C Accuracy [%] (validation standard 2xLLOV) | Long-term stability, 2 month, -80°C Accuracy [%] (validation standard 2xLLOV) | Long-term stability, 3 month, -20°C Accuracy [%] (validation standard 2xLLOV) | Long-term stability, 3 month, -80°C Accuracy [%] (validation standard 2xLLOV) | Long-term stability, 6 weeks, 4°C, without daylight Accuracy [%] (validation standard 2xLLOV) | Long-term stability, 1 month, -20°C Accuracy [%] (validation standard LLOV) | Long-term stability, 1 month, -80°C Accuracy [%] (validation standard LLOV) | Long-term stability, 2 month, -20°C Accuracy [%] (validation standard LLOV) | Long-term stability, 2 month, -80°C Accuracy [%] (validation standard LLOV) | Long-term stability, 3 month, -20°C Accuracy [%] (validation standard LLOV) | Long-term stability, 3 month, -80°C Accuracy [%] (validation standard LLOV) | Long-term stability, 6 weeks, 4°C, without daylight Accuracy [%] (validation standard LLOV) | Long-term stability, 1 month, -20°C Accuracy [%] (validation standard MOV) | Long-term stability, 1 month, -80°C Accuracy [%] (validation standard MOV) | Long-term stability, 2 month, -20°C Accuracy [%] (validation standard MOV) | Long-term stability, 2 month, -80°C Accuracy [%] (validation standard MOV) | Long-term stability, 3 month, -20°C Accuracy [%] (validation standard MOV) | Long-term stability, 3 month, -80°C Accuracy [%] (validation standard MOV) | also measured |
| --- | --- | --- | --- | --- | --- | --- | --- | --- | --- | --- | --- | --- | --- | --- | --- | --- | --- | --- | --- | --- | --- |
| CO[C@@H]1[C@H](N(C)C(=O)c2ccccc2)C[C@H]2O[C@]1(C)n1c3ccccc3c3c4c(c5c6ccccc6n2c5c31)C(=O)NC4 [Midostaurin] | 105.5 | 106.8 | 106.0 | 108.5 | 97.1 | 106.8 | 94.2 | 109.4 | 106.4 | 106.5 | 101.2 | 102.8 | 112.8 | 102.3 | 105.8 | 108.1 | 113.7 | 116.3 | 102.0 | 102.9 | Long-term stability, 6 weeks, 4°C, without daylight Accuracy [%] (validation standard MOV): 103.5%; Long-term stability, 1 month, -20°C Accuracy [%] (validation standard ULOV): 107.3%; Long-term stability, 1 month, -80°C Accuracy [%] (validation standard ULOV): 103.4%; Long-term stability, 2 month, -20°C Accuracy [%] (validation standard ULOV): 118.6%; Long-term stability, 2 month, -80°C Accuracy [%] (validation standard ULOV): 111.4%; Long-term stability, 3 month, -20°C Accuracy [%] (validation standard ULOV): 93.8%; Long-term stability, 3 month, -80°C Accuracy [%] (validation standard ULOV): 107.0%; Long-term stability, 6 weeks, 4°C, without daylight Accuracy [%] (validation standard ULOV): 97.3% |
| O=c1[nH]c(=O)n([C@H]2C[C@H](O)[C@@H](CO)O2)cc1C(F)(F)F [Trifluridine] | 112.0 | 105.0 | 107.3 | 104.3 | 103.6 | 99.5 | 68.8 | 97.0 | 95.2 | 79.5 | 70.3 | 89.9 | 85.8 | 49.1 | 99.4 | 94.6 | 109.3 | 104.7 | 92.2 | 90.8 | Long-term stability, 6 weeks, 4°C, without daylight Accuracy [%] (validation standard MOV): 59.0%; Long-term stability, 1 month, -20°C Accuracy [%] (validation standard ULOV): 93.7%; Long-term stability, 1 month, -80°C Accuracy [%] (validation standard ULOV): 88.8%; Long-term stability, 2 month, -20°C Accuracy [%] (validation standard ULOV): 98.4%; Long-term stability, 2 month, -80°C Accuracy [%] (validation standard ULOV): 95.5%; Long-term stability, 3 month, -20°C Accuracy [%] (validation standard ULOV): 82.1%; Long-term stability, 3 month, -80°C Accuracy [%] (validation standard ULOV): 79.9%; Long-term stability, 6 weeks, 4°C, without daylight Accuracy [%] (validation standard ULOV): 27.1% |
| CNC(=O)c1cc(Oc2ccc(NC(=O)Nc3ccc(Cl)c(C(F)(F)F)c3)c(F)c2)ccn1 [Regorafenib] | 101.2 | 104.0 | 105.6 | 104.3 | 90.7 | 103.7 | 80.6 | 105.4 | 102.9 | 106.3 | 104.7 | 94.0 | 105.1 | 79.3 | 101.6 | 106.3 | 105.8 | 112.2 | 97.1 | 100.4 | Long-term stability, 6 weeks, 4°C, without daylight Accuracy [%] (validation standard MOV): 101.0%; Long-term stability, 1 month, -20°C Accuracy [%] (validation standard ULOV): 104.7%; Long-term stability, 1 month, -80°C Accuracy [%] (validation standard ULOV): 103.8%; Long-term stability, 2 month, -20°C Accuracy [%] (validation standard ULOV): 108.5%; Long-term stability, 2 month, -80°C Accuracy [%] (validation standard ULOV): 107.0%; Long-term stability, 3 month, -20°C Accuracy [%] (validation standard ULOV): 92.9%; Long-term stability, 3 month, -80°C Accuracy [%] (validation standard ULOV): 103.1%; Long-term stability, 6 weeks, 4°C, without daylight Accuracy [%] (validation standard ULOV): 95.5% |
| CC(C)(C)c1nc(-c2cccc(NS(=O)(=O)c3c(F)cccc3F)c2F)c(-c2ccnc(N)n2)s1 [Dabrafenib] | 101.2 | 93.1 | 98.6 | 101.3 | 96.6 | 101.7 | 107.2 | 101.0 | 96.1 | 99.0 | 97.9 | 97.1 | 96.6 | 102.4 | 96.1 | 92.3 | 97.8 | 98.9 | 100.3 | 98.0 | Long-term stability, 6 weeks, 4°C, without daylight Accuracy [%] (validation standard MOV): 107.2%; Long-term stability, 1 month, -20°C Accuracy [%] (validation standard ULOV): 97.0%; Long-term stability, 1 month, -80°C Accuracy [%] (validation standard ULOV): 92.2%; Long-term stability, 2 month, -20°C Accuracy [%] (validation standard ULOV): 97.4%; Long-term stability, 2 month, -80°C Accuracy [%] (validation standard ULOV): 98.0%; Long-term stability, 3 month, -20°C Accuracy [%] (validation standard ULOV): 96.3%; Long-term stability, 3 month, -80°C Accuracy [%] (validation standard ULOV): 98.6%; Long-term stability, 6 weeks, 4°C, without daylight Accuracy [%] (validation standard ULOV): 100.6% |
| CNC(=O)c1ccc(N2C(=S)N(c3cnc(C#N)c(C(F)(F)F)c3)C(=O)C23CCC3)cc1F [Apalutamide] | 94.7 | 93.2 | 91.6 | 100.0 | 85.1 | 94.9 | 73.5 | 96.1 | 100.0 | 93.4 | 102.3 | 90.4 | 98.4 | 78.5 | 89.4 | 91.1 | 90.2 | 97.6 | 86.8 | 89.7 | Long-term stability, 6 weeks, 4°C, without daylight Accuracy [%] (validation standard MOV): 54.9%; Long-term stability, 1 month, -20°C Accuracy [%] (validation standard ULOV): 90.6%; Long-term stability, 1 month, -80°C Accuracy [%] (validation standard ULOV): 90.2%; Long-term stability, 2 month, -20°C Accuracy [%] (validation standard ULOV): 88.9%; Long-term stability, 2 month, -80°C Accuracy [%] (validation standard ULOV): 95.9%; Long-term stability, 3 month, -20°C Accuracy [%] (validation standard ULOV): 78.8%; Long-term stability, 3 month, -80°C Accuracy [%] (validation standard ULOV): 90.1%; Long-term stability, 6 weeks, 4°C, without daylight Accuracy [%] (validation standard ULOV): 48.1% |
| CNC(=O)c1ccccc1Sc1ccc2c(/C=C/c3ccccn3)n[nH]c2c1 [Axitinib] | 86.8 | 86.83 | 87.6 | 94.2 | 92.9 | 100.1 | 66.5 | 87.8 | 83.07 | 110.1 | 90.5 | 107.3 | 102.5 | 49.2 | 89.8 | 87.50 | 87.7 | 92.2 | 95.9 | 90.5 | Long-term stability, 6 weeks, 4°C, without daylight Accuracy [%] (validation standard MOV): 100.5%; Long-term stability, 1 month, -20°C Accuracy [%] (validation standard ULOV): 92.0%; Long-term stability, 1 month, -80°C Accuracy [%] (validation standard ULOV): 87.13%; Long-term stability, 2 month, -20°C Accuracy [%] (validation standard ULOV): 88.8%; Long-term stability, 2 month, -80°C Accuracy [%] (validation standard ULOV): 91.3%; Long-term stability, 3 month, -20°C Accuracy [%] (validation standard ULOV): 86.8%; Long-term stability, 3 month, -80°C Accuracy [%] (validation standard ULOV): 91.9%; Long-term stability, 6 weeks, 4°C, without daylight Accuracy [%] (validation standard ULOV): 91.2% |
